Laboratory results reported in ChEMBL document CHEMBL1157942, “Bioactive diterpenes from the fruits of Detarium microcarpum” (2006).

Test system: Cladosporium cucumerinum
Assay: Antifungal activity against Cladosporium cucumerinum after 3 days
Type: functional

SMILES | Activity [µg]
CC1=CC(=O)C[C@H]2[C@](C)(CC/C(C)=C/C(=O)O)[C@@H](C)CC[C@]12C | >100
C=C1CC[C@@H]2C(C)(C)CCC[C@@]2(C)[C@@H]1CC/C(C)=C/C(=O)O [COPALIC ACID] | >100
C/C(=C\C(=O)O)CC[C@]1(C)[C@H](C)CC[C@]2(C)[C@H]1CC[C@H](O)[C@@]2(C)O | >100
C/C(=C/C(=O)O)CC[C@]1(C)[C@@H](C)CC[C@]2(C)[C@H]1CC[C@@H](O)[C@@]2(C)O | 10
C/C(=C\C(=O)O)CC[C@@]1(C)[C@H]2CC[C@H]3O[C@@]3(C)[C@@]2(C)CC[C@@H]1C | 10
Clc1ccc(COC(Cn2ccnc2)c2ccc(Cl)cc2Cl)c(Cl)c1 (configuration not stated) [MICONAZOLE] | 1
CC1=CC(=O)C[C@H]2[C@](C)(CC/C(C)=C/C(=O)O)[C@H](C)CC[C@@]12C | 100
